The NIST ThermoML archive (doi:10.1016/j.jct.2005.09.004)

How the values were obtained:
[1] = refractive index (Na D-line) (dimensionless); φn = volume fraction of the nth substance listed; conditions: 101 kPa, Liquid, Standard Abbe refractometry
[2] = xn = mol fraction of the nth substance listed; conditions: for surface tension liquid-gas: Drop volume; for mass density: 101 kPa, Liquid

C1COCCO1 [1,4-dioxane] + C1CCCCC1
Conditions	mass density [kg/m3]	refractive index	surface tension liquid-gas [mN/m]
[1], 283.15 K, φ1 = 0.0478	–	1.4305	–
[1], 283.15 K, φ1 = 0.075	–	1.42987	–
[1], 283.15 K, φ1 = 0.1601	–	1.42827	–
[1], 283.15 K, φ1 = 0.251	–	1.4271	–
[1], 283.15 K, φ1 = 0.3438	–	1.42629	–
[1], 283.15 K, φ1 = 0.4452	–	1.42577	–
[1], 283.15 K, φ1 = 0.5448	–	1.42557	–
[1], 283.15 K, φ1 = 0.649	–	1.42556	–
[1], 283.15 K, φ1 = 0.756	–	1.42585	–
[1], 283.15 K, φ1 = 0.8802	–	1.42643	–
[1], 283.15 K, φ1 = 0.9414	–	1.4268	–
[1], 298.15 K, φ1 = 0.0319	–	1.4226	–
[1], 298.15 K, φ1 = 0.0849	–	1.42144	–
[1], 298.15 K, φ1 = 0.1562	–	1.42012	–
[1], 298.15 K, φ1 = 0.2528	–	1.41893	–
[1], 298.15 K, φ1 = 0.3465	–	1.41821	–
[1], 298.15 K, φ1 = 0.4415	–	1.4178	–
[1], 298.15 K, φ1 = 0.5389	–	1.4177	–
[1], 298.15 K, φ1 = 0.651	–	1.41786	–
[1], 298.15 K, φ1 = 0.7604	–	1.41827	–
[1], 298.15 K, φ1 = 0.8701	–	1.41893	–
[1], 298.15 K, φ1 = 0.9439	–	1.41949	–
[1], 313.15 K, φ1 = 0.0381	–	1.41404	–
[1], 313.15 K, φ1 = 0.0816	–	1.41308	–
[1], 313.15 K, φ1 = 0.1625	–	1.41168	–
[1], 313.15 K, φ1 = 0.268	–	1.41055	–
[1], 313.15 K, φ1 = 0.3476	–	1.41002	–
[1], 313.15 K, φ1 = 0.4399	–	1.40973	–
[1], 313.15 K, φ1 = 0.5368	–	1.40971	–
[1], 313.15 K, φ1 = 0.6463	–	1.41003	–
[1], 313.15 K, φ1 = 0.7626	–	1.41069	–
[1], 313.15 K, φ1 = 0.8682	–	1.41143	–
[1], 313.15 K, φ1 = 0.9462	–	1.4121	–
[2], 283.15 K, x1 = 0.0502	796.53	–	–
[2], 283.15 K, x1 = 0.0684	–	–	26.1
[2], 283.15 K, x1 = 0.0999	805.45	–	–
[2], 283.15 K, x1 = 0.1484	–	–	25.94
[2], 283.15 K, x1 = 0.1953	823.9	–	–
[2], 283.15 K, x1 = 0.2267	–	–	25.85
[2], 283.15 K, x1 = 0.2899	843.69	–	–
[2], 283.15 K, x1 = 0.2974	–	–	25.97
[2], 283.15 K, x1 = 0.3996	868.5	–	–
[2], 283.15 K, x1 = 0.4402	–	–	26.2
[2], 283.15 K, x1 = 0.5017	893.36	–	–
[2], 283.15 K, x1 = 0.5509	–	–	26.51
[2], 283.15 K, x1 = 0.6007	919.28	–	–
[2], 283.15 K, x1 = 0.6578	–	–	27.08
[2], 283.15 K, x1 = 0.699	946.87	–	–
[2], 283.15 K, x1 = 0.7394	–	–	27.97
[2], 283.15 K, x1 = 0.7956	976.06	–	–
[2], 283.15 K, x1 = 0.8115	–	–	29.3
[2], 283.15 K, x1 = 0.8994	1009.7	–	–
[2], 283.15 K, x1 = 0.9186	–	–	32
[2], 283.15 K, x1 = 0.9446	1025.26	–	–
[2], 283.15 K, x1 = 0.9738	–	–	33.93
[2], 298.15 K, x1 = 0.0535	782.54	–	–
[2], 298.15 K, x1 = 0.0684	–	–	25.1
[2], 298.15 K, x1 = 0.1053	791.71	–	–
[2], 298.15 K, x1 = 0.1484	–	–	25.24
[2], 298.15 K, x1 = 0.1998	809.79	–	–
[2], 298.15 K, x1 = 0.2267	–	–	25.29
[2], 298.15 K, x1 = 0.2974	–	–	25.38
[2], 298.15 K, x1 = 0.3003	830.58	–	–
[2], 298.15 K, x1 = 0.4026	853.43	–	–
[2], 298.15 K, x1 = 0.4402	–	–	25.72
[2], 298.15 K, x1 = 0.5006	876.98	–	–
[2], 298.15 K, x1 = 0.5509	–	–	26.07
[2], 298.15 K, x1 = 0.5971	901.85	–	–
[2], 298.15 K, x1 = 0.6578	–	–	26.62
[2], 298.15 K, x1 = 0.7028	931.22	–	–
[2], 298.15 K, x1 = 0.7394	–	–	27.1
[2], 298.15 K, x1 = 0.8089	963.35	–	–
[2], 298.15 K, x1 = 0.8115	–	–	28
[2], 298.15 K, x1 = 0.9038	994.24	–	–
[2], 298.15 K, x1 = 0.9186	–	–	30.26
[2], 298.15 K, x1 = 0.9485	1009.6	–	–
[2], 298.15 K, x1 = 0.9738	–	–	31.99
[2], 313.15 K, x1 = 0.0497	767.71	–	–
[2], 313.15 K, x1 = 0.0684	–	–	23.8
[2], 313.15 K, x1 = 0.102	776.79	–	–
[2], 313.15 K, x1 = 0.1484	–	–	24.23
[2], 313.15 K, x1 = 0.1944	794	–	–
[2], 313.15 K, x1 = 0.2267	–	–	24.46
[2], 313.15 K, x1 = 0.2926	813.99	–	–
[2], 313.15 K, x1 = 0.2974	–	–	24.71
[2], 313.15 K, x1 = 0.3973	837	–	–
[2], 313.15 K, x1 = 0.4402	–	–	25.23
[2], 313.15 K, x1 = 0.4969	860.64	–	–
[2], 313.15 K, x1 = 0.5509	–	–	25.7
[2], 313.15 K, x1 = 0.5992	886.73	–	–
[2], 313.15 K, x1 = 0.6578	–	–	26.2
[2], 313.15 K, x1 = 0.6988	914.22	–	–
[2], 313.15 K, x1 = 0.7394	–	–	26.62
[2], 313.15 K, x1 = 0.7966	943.29	–	–
[2], 313.15 K, x1 = 0.8115	–	–	27.13
[2], 313.15 K, x1 = 0.8972	975.49	–	–
[2], 313.15 K, x1 = 0.9186	–	–	28.62
[2], 313.15 K, x1 = 0.9505	993.41	–	–
[2], 313.15 K, x1 = 0.9738	–	–	30.17
